Source: patent US9469617B2, “Molecules having certain pesticidal utilities, and intermediates, compositions, and processes related thereto” (priority 2014, dated 2016)

Key:
Format in all cases: in vivo
[1] = tested on: Beet Armyworm (BAW) (Spodoptera exigua); assay: Bioassay on Beet Armyworm (BAW), 128-well diet tray assay; conditions: 168 h, Table ABC, 50 μg/cm^2 on artificial diet, second instar larvae, five to seven days, 25° C., read-out: BAW % Control (or Mortality) rating
Method: (§1) Certain molecules disclosed in this document were tested against BAW and CL using procedures described in the following examples. In the reporting of the results, the “BAW & CL Rating Table” was used (See Table Section).
Bioassays on BAW were conducted using a 128-well diet tray assay. one to five second instar BAW larvae were placed in each well (3 mL) of the diet tray that had been previously filled with 1 mL of artificial diet to which 50 μg/cm^2 of the test compound (dissolved in 50 μL of 90:10 acetone-water mixture) had been applied (to each of eight wells) and then allowed to dry. Trays were covered with a clear self-adhesive cover, and held at 25° C., 14:10 light-dark for five to seven days. Percent mortality was recorded for the larvae in each well; activity in the eight wells was then averaged. The results are indicated in the tables entitled “Table ABC: Assay Results” and “Table ABCD: Assay Results” (See Table Section).

[2] = tested on: Cabbage Looper (CL) (Trichoplusia ni); assay: Bioassay on Cabbage Looper (CL), 128-well diet tray assay; conditions: 168 h, Table ABC, 50 μg/cm^2 on artificial diet, second instar larvae, five to seven days, 25° C., read-out: CL % Control (or Mortality) rating
Method: as §1
Bioassays on CL were conducted using a 128-well diet tray assay. One to five second instar CL larvae were placed in each well (3 mL) of the diet tray that had been previously filled with 1 mL of artificial diet to which 50 μg/cm^2 of the test compound (dissolved in 50 μL of 90:10 acetone-water mixture) had been applied (to each of eight wells) and then allowed to dry. Trays were covered with a clear self-adhesive cover, and held at 25° C., 14:10 light-dark for five to seven days. Percent mortality was recorded for the larvae in each well; activity in the eight wells was then averaged. The results are indicated in the table entitled “Table ABC: Assay Results” and “Table ABCD: Assay Results” (See Table Section).

[3] = tested on: Yellow Fever Mosquito (YFM) (Aedes aegypti); assay: Bioassay on Yellow Fever Mosquito (YFM) larvae, 96-well plate; conditions: Table ABC; about 1 day-old larvae, master plate 4000 ppm in DMSO diluted, scored on mortality after 3 days
Method: Certain molecules disclosed in this document were tested against YFM using procedures described in the following paragraph. In the reporting of the results, the “GPA & YFM Rating Table” was used (See Table Section).
Master plates containing 400 μg of a molecule dissolved in 100 μL of dimethyl sulfoxide (DMSO) (equivalent to a 4000 ppm solution) are used. A master plate of assembled molecules contains 15 μL per well. To this plate, 135 μL of a 90:10 water:acetone mixture is added to each well. A robot (Biomek® NXP Laboratory Automation Workstation) is programmed to dispense 15 μL aspirations from the master plate into an empty 96-well shallow plate (“daughter” plate). There are 6 reps (“daughter” plates) created per master. The created daughter plates are then immediately infested with YFM larvae.
The day before plates are to be treated, mosquito eggs are placed in Millipore water containing liver powder to begin hatching (4 g. into 400 mL). After the daughter plates are created using the robot, they are infested with 220 μL of the liver powder/larval mosquito mixture (about 1 day-old larvae). After plates are infested with mosquito larvae, a non-evaporative lid is used to cover the plate to reduce drying. Plates are held at room temperature for 3 days prior to grading. After 3 days, each well is observed and scored based on mortality.

Structure (SMILES) | mortality at 50 µg/cm2 [1] [%] | mortality at 50 µg/cm2 [2] [%] | YFM % Control (or Mortality) rating [3]
Cc1ccc(C(C)C)c(-n2c(C)cs/c2=N\C(=O)NC2Cc3ccc(-c4ncn(-c5ccc(OC(F)(F)F)cc5)n4)cc3C2)c1 (stereo not drawn) [P12, (Z)-1-(3-(2-Isopropyl-5-methylphenyl)-4-methylthiazol-2(3H)-ylidene)-3-(5-(1-(4-(trifluoromethoxy)phenyl)-1H-1,2,4-triazol-3-yl)-2,3-dihydro-1H-inden-2-yl)urea] | 50 to 100 | 50 to 100 | A (80-100)
Cc1ccc(C(C)C)c(N2C(=O)C(C)S/C2=N\C(=O)NC2Cc3ccc(-c4ncn(-c5ccc(OC(F)(F)F)cc5)n4)cc3C2)c1 (stereo not drawn) [P13, (Z)-1-(3-(2-Isopropyl-5-methylphenyl)-5-methyl-4-oxothiazolidin-2-ylidene)-3-(5-(1-(4-(trifluoromethoxy)phenyl)-1H-1,2,4-triazol-3-yl)-2,3-dihydro-1H-inden-2-yl)urea] | 50 to 100 | 50 to 100 | B (More than 0-Less than 80)
Cc1ccc(C(C)C)c(N2CC(C)CS/C2=N\C(=O)NC2Cc3ccc(-c4ncn(-c5ccc(OC(F)(F)F)cc5)n4)cc3C2)c1 (stereo not drawn) [P18, (Z)-1-(3-(2-isopropyl-5-methylphenyl)-5-methyl-1,3-thiazinan-2-ylidene)-3-(5-(1-(4-(trifluoromethoxy)phenyl)-1H-1,2,4-triazol-3-yl)-2,3-dihydro-1H-inden-2-yl)urea] | 50 to 100 | 50 to 100 | A (80-100)
CC(C)c1ccccc1N1CCCS/C1=N\C(=O)NC1Cc2ccc(-c3ncn(-c4ccc(OC(F)(F)F)cc4)n3)cc2C1 (stereo not drawn) [P19, (Z)-1-(3-(2-Isopropylphenyl)-1,3-thiazinan-2-ylidene)-3-(5-(1-(4-(trifluoromethoxy)phenyl)-1H-1,2,4-triazol-3-yl)-2,3-dihydro-1H-inden-2-yl)urea] | 50 to 100 | 50 to 100 | A (80-100)
Cc1ccc(C(C)C)c(N2CCCS/C2=N\C(=O)NC2Cc3ccc(-c4ncn(-c5ccc(OC(F)(F)F)cc5)n4)cc3C2)c1 (stereo not drawn) [P20, (Z)-1-(3-(2-Isopropyl-5-methylphenyl)-1,3-thiazinan-2-ylidene)-3-(5-(1-(4-(trifluoromethoxy)phenyl)-1H-1,2,4-triazol-3-yl)-2,3-dihydro-1H-inden-2-yl)urea] | 50 to 100 | 50 to 100 | A (80-100)
Cc1ccc(C(C)C)c(NC(=S)NC(=O)NC2CCc3cc(-c4ncn(-c5ccc(OC(F)(F)F)cc5)n4)ccc3C2)c1 (stereo not drawn) [P21, 1-[(2-Isopropyl-5-methyl-phenyl)carbamothioyl]-3-[6-[1-[4-(trifluoromethoxy)phenyl]-1,2,4-triazol-3-yl]tetralin-2-yl]urea] | 50 to 100 | 50 to 100 | A (80-100)
CC(C)c1ccccc1NC(=S)NC(=O)NC1CCc2cc(-c3ncn(-c4ccc(OC(F)(F)F)cc4)n3)ccc2C1 (stereo not drawn) [P22, 1-[(2-Isopropylphenyl)carbamothioyl]-3-[6-[1-[4-(trifluoromethoxy)phenyl]-1,2,4-triazol-3-yl]tetralin-2-yl]urea] | 50 to 100 | 50 to 100 | A (80-100)
CC(C)c1ccccc1N1C(=O)CS/C1=N\C(=O)NC1CCc2cc(-c3ncn(-c4ccc(OC(F)(F)F)cc4)n3)ccc2C1 (stereo not drawn) [P24, (Z)-1-(3-(2-Isopropylphenyl)-4-oxothiazolidin-2-ylidene)-3-(6-(1-(4-(trifluoromethoxy)phenyl)-1H-1,2,4-triazol-3-yl)-1,2,3,4-tetrahydronaphthalen-2-yl)urea] | 50 to 100 | 50 to 100 | A (80-100)
Cc1ccc(C)c(NC(=S)NC(=O)NC2CCc3cc(-c4ncn(-c5ccc(OC(F)(F)F)cc5)n4)ccc3C2)c1 (stereo not drawn) [P25, 1-[(2,5-Dimethylphenyl)carbamothioyl]-3-[6-[1-[4-(trifluoromethoxy)phenyl]-1,2,4-triazol-3-yl]tetralin-2-yl]urea] | 50 to 100 | 50 to 100 | A (80-100)
CC(C)c1ccc(Cl)cc1NC(=S)NC(=O)NC1CCc2cc(-c3ncn(-c4ccc(OC(F)(F)F)cc4)n3)ccc2C1 (stereo not drawn) [P26, 1-[(5-Chloro-2-isopropyl-phenyl)carbamothioyl]-3-[6-[1-[4-(trifluoromethoxy)phenyl]-1,2,4-triazol-3-yl]tetralin-2-yl]urea] | 50 to 100 | 50 to 100 | A (80-100)
CCCc1ccc(C)cc1NC(=S)NC(=O)NC1CCc2cc(-c3ncn(-c4ccc(OC(F)(F)F)cc4)n3)ccc2C1 (stereo not drawn) [P27, 1-[(5-Methyl-2-propyl-phenyl)carbamothioyl]-3-[6-[1-[4-(trifluoromethoxy)phenyl]-1,2,4-triazol-3-yl]tetralin-2-yl]urea] | 50 to 100 | 50 to 100 | A (80-100)
COc1ccc(NC(=S)NC(=O)NC2CCc3cc(-c4ncn(-c5ccc(OC(F)(F)F)cc5)n4)ccc3C2)c(C)c1 (stereo not drawn) [P28, 1-[(4-Methoxy-2-methyl-phenyl)carbamothioyl]-3-[6-[1-[4-(trifluoromethoxy)phenyl]-1,2,4-triazol-3-yl]tetralin-2-yl]urea] | 50 to 100 | 50 to 100 | A (80-100)
CCc1cccc(C)c1NC(=S)NC(=O)NC1CCc2cc(-c3ncn(-c4ccc(OC(F)(F)F)cc4)n3)ccc2C1 (stereo not drawn) [P29, 1-[(2-Ethyl-6-methyl-phenyl)carbamothioyl]-3-[6-[1-[4-(trifluoromethoxy)phenyl]-1,2,4-triazol-3-yl]tetralin-2-yl]urea] | 50 to 100 | 50 to 100 | A (80-100)
Cc1ccc(Cl)c(NC(=S)NC(=O)NC2CCc3cc(-c4ncn(-c5ccc(OC(F)(F)F)cc5)n4)ccc3C2)c1 (stereo not drawn) [P30, 1-[(2-Chloro-5-methyl-phenyl)carbamothioyl]-3-[6-[1-[4-(trifluoromethoxy)phenyl]-1,2,4-triazol-3-yl]tetralin-2-yl]urea] | 50 to 100 | 50 to 100 | A (80-100)
COc1ccc(C)cc1NC(=S)NC(=O)NC1CCc2cc(-c3ncn(-c4ccc(OC(F)(F)F)cc4)n3)ccc2C1 (stereo not drawn) [P31, 1-[(2-Methoxy-5-methyl-phenyl)carbamothioyl]-3-[6-[1-[4-(trifluoromethoxy)phenyl]-1,2,4-triazol-3-yl]tetralin-2-yl]urea] | 50 to 100 | 50 to 100 | A (80-100)
Cc1ccc(C)c(N2C(=O)CS/C2=N\C(=O)NC2CCc3cc(-c4ncn(-c5ccc(OC(F)(F)F)cc5)n4)ccc3C2)c1 (stereo not drawn) [P32, (Z)-1-(3-(2,5-Dimethylphenyl)-4-oxothiazolidin-2-ylidene)-3-(6-(1-(4-(trifluoromethoxy)phenyl)-1H-1,2,4-triazol-3-yl)-1,2,3,4-tetrahydronaphthalen-2-yl)urea] | 50 to 100 | 50 to 100 | B (More than 0-Less than 80)
CC(C)c1ccc(Cl)cc1N1C(=O)CS/C1=N\C(=O)NC1CCc2cc(-c3ncn(-c4ccc(OC(F)(F)F)cc4)n3)ccc2C1 (stereo not drawn) [P33, (Z)-1-(3-(5-Chloro-2-isopropylphenyl)-4-oxothiazolidin-2-ylidene)-3-(6-(1-(4-(trifluoromethoxy)phenyl)-1H-1,2,4-triazol-3-yl)-1,2,3,4-tetrahydronaphthalen-2-yl)urea] | 50 to 100 | 50 to 100 | A (80-100)
